Like-named read-outs stand apart in the source and are kept apart here.
How the values were obtained:
[1] = system: human USP1-UAF1; conditions: cited from earlier work
[2] = system: H596 cells; assay: cell cycle analysis; type: cell-based, human
[3] = molecular target: USP10 (Homo sapiens, UniProt Q14694); assay: in vitro DUB selectivity
[4] = system: USP8, USP7, CYLD, USP5, USP14, UCH-L3 and UCH-L1 in HEK293T cells; assay: cellular activity-based DUB profiling with HA-Ub-VME; type: cell-based, human; conditions: 100 μM cisplatin, ML323 0.5 to 50 μM
[5] = system: 451 kinases; assay: in vitro kinase profiling; type: biochemical
[6] = molecular target: USP46-UAF1 (Homo sapiens, UniProt P62068); assay: in vitro DUB selectivity; type: biochemical
Sequence of USP46-UAF1 (P62068 whole entry): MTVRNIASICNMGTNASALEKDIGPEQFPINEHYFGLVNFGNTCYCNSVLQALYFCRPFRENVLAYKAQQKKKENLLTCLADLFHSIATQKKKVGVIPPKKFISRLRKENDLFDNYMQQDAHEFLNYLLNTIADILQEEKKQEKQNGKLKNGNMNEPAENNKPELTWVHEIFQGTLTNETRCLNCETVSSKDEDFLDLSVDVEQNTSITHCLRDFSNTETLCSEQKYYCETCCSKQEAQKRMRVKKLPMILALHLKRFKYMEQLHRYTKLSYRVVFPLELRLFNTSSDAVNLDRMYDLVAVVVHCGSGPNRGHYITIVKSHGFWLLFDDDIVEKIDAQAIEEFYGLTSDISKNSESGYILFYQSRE
Sequence of USP46-UAF1 (Q8TAF3 whole entry partner): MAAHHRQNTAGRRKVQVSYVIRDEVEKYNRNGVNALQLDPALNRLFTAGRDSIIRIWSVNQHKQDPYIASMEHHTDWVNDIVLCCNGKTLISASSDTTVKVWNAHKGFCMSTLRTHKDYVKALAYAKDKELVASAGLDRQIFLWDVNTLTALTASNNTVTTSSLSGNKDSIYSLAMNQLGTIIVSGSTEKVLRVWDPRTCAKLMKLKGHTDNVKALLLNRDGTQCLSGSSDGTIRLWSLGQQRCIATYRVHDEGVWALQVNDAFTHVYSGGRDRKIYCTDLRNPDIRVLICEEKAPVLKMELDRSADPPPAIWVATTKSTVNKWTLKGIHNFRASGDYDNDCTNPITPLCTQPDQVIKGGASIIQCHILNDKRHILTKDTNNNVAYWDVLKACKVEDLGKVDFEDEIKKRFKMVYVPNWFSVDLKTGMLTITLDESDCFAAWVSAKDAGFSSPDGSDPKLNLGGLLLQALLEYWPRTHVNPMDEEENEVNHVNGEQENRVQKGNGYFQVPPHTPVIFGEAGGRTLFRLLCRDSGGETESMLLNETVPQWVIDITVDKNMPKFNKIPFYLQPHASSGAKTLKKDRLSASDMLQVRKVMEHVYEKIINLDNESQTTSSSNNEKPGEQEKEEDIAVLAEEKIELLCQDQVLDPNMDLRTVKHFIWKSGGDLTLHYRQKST

[7] = system: DUBs in the UCH, OTU and MJD families; assay: in vitro DUB profiling
[8] = system: PD20 + D2 cells; assay: UV sensitivity colony-forming assay; type: cell-based, human; conditions: with ML323
[9] = system: U2OS cells; assay: SCE assay; type: cell-based, human; conditions: ML323 30 μM, cisplatin 15 μM, control 0.12
[10] = system: USP1 shRNA knockout H596 cell strain; assay: colony-forming assay in USP1 shRNA cells; type: cell-based, human
[11] = molecular target: USP11 (Homo sapiens, UniProt P51784); assay: in vitro DUB selectivity; type: biochemical
[12] = molecular target: USP14 (Homo sapiens, UniProt P54578); assay: in vitro DUB selectivity
[13] = molecular target: NEDP1 (Homo sapiens, UniProt Q96LD8); assay: in vitro deneddylase selectivity; type: biochemical
Sequence of NEDP1 (Q96LD8 whole entry): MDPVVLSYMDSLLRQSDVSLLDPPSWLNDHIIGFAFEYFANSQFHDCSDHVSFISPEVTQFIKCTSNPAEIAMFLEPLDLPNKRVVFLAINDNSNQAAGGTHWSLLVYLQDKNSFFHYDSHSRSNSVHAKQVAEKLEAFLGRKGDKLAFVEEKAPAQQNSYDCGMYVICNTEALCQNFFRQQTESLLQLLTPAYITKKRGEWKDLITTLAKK

[14] = molecular target: USP21 (Homo sapiens, UniProt Q9UK80); assay: in vitro DUB selectivity; type: biochemical
Sequence of USP21 (Q9UK80 209-563): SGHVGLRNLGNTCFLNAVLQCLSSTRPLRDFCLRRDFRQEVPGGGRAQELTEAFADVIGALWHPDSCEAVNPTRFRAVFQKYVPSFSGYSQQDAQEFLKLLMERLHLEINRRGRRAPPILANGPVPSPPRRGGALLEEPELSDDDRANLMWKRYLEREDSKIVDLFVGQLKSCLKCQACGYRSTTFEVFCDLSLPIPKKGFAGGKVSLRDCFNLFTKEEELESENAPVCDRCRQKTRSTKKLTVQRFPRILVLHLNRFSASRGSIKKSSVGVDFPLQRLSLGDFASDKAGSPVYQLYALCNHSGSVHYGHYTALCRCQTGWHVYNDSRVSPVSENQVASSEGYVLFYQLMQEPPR

[15] = molecular target: USP8 (Homo sapiens, UniProt P40818); assay: in vitro DUB selectivity; type: biochemical
Sequence of USP8 (P40818 whole entry): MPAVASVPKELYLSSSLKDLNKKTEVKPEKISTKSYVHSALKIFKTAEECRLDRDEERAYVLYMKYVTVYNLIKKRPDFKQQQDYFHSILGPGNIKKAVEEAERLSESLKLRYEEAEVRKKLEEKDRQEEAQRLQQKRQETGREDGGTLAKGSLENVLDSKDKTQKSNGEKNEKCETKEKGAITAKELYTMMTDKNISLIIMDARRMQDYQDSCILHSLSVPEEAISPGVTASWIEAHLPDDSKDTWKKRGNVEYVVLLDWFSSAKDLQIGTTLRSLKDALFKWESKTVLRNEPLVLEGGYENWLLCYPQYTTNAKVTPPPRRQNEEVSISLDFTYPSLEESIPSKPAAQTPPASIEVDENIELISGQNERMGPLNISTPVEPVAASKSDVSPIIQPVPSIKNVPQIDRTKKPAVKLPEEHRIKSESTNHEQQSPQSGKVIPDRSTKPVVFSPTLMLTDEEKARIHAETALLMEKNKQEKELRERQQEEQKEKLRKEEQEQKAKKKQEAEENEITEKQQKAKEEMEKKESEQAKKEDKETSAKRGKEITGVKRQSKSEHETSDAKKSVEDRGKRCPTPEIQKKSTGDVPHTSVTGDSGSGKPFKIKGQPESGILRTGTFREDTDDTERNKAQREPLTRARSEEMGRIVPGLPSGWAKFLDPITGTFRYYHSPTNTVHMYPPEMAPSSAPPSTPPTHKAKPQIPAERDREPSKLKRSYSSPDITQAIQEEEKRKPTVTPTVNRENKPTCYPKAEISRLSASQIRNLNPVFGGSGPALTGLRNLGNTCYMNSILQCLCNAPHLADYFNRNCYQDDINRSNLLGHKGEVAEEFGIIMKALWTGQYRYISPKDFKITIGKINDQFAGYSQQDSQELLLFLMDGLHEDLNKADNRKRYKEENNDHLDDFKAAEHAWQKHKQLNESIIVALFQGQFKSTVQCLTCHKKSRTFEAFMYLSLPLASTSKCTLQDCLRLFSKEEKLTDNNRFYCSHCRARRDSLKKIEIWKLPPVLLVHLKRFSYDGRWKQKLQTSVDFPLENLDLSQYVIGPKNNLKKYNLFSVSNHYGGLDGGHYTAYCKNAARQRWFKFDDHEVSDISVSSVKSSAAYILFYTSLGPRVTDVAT

[16] = molecular target: T1, USP1-UAF1 (Homo sapiens, UniProt O94782); assay: native gel electrophoresis of USP1-UAF1 complex; conditions: up to 100 times its IC50
T1 sequence (O94782 whole entry): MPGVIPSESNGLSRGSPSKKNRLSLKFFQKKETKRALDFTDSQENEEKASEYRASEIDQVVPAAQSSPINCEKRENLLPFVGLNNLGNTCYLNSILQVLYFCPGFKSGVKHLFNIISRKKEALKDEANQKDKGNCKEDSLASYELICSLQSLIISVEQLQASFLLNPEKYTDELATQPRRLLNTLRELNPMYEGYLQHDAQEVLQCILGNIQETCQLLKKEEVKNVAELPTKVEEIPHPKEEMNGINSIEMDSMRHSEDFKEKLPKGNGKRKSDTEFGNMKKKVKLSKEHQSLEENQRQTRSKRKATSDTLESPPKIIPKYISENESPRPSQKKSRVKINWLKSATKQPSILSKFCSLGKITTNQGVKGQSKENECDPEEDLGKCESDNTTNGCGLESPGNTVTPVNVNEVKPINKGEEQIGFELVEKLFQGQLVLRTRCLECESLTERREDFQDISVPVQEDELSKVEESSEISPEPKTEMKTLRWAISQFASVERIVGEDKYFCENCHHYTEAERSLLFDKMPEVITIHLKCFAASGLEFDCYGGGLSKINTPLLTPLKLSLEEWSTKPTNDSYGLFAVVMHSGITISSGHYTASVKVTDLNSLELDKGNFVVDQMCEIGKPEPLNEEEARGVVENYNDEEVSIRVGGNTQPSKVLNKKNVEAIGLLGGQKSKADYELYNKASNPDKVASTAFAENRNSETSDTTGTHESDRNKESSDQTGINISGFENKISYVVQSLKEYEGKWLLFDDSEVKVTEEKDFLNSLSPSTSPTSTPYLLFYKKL
T1 sequence (Q8TAF3 whole entry partner): as the sequence (Q8TAF3 whole entry partner) above

[17] = molecular target: T1, USP1-UAF1; assay: reversibility; type: biochemical; conditions: 100-fold dilution after treatment at ten times the IC50 for 15, 30 and 60 min
[18] = system: PD20 cells; assay: UV sensitivity colony-forming assay; type: cell-based, human; conditions: 20 μM ML323
[19] = molecular target: USP2 (Homo sapiens, UniProt O75604); assay: in vitro DUB selectivity; type: biochemical
Sequence of USP2 (O75604 259-605): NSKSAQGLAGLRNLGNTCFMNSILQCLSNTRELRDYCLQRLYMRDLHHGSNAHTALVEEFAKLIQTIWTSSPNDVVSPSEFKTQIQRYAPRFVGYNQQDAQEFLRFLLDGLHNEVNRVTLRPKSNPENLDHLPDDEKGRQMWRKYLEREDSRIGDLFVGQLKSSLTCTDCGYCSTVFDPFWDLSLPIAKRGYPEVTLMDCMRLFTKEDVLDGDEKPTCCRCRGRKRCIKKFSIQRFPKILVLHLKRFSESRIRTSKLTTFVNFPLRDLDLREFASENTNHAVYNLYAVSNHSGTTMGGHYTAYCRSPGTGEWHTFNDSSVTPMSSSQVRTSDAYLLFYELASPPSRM

[20] = system: XPV + Polη cells; assay: UV sensitivity colony-forming assay; conditions: 20 μM ML323
[21] = molecular target: T1, USP1-UAF1; assay: inhibition mechanism determination; type: biochemical
[22] = system: XPV cells; assay: UV sensitivity colony-forming assay; type: cell-based, human; conditions: 20 μM ML323
[23] = system: DR-U2OS cells; assay: HR assay; type: cell-based, human; conditions: 30 μM ML323, 2.56% in the absence of ML323
[24] = molecular target: USP1 in HEK293T cells (Homo sapiens, UniProt O94782); assay: cellular activity-based DUB profiling with HA-Ub-VME; type: cell-based; conditions: 100 μM cisplatin, ML323 0.5 to 50 μM
Sequence of USP1 in HEK293T cells (O94782 whole entry): as the sequence (O94782 whole entry) above
Sequence of USP1 in HEK293T cells (Q8TAF3 whole entry partner): as the sequence (Q8TAF3 whole entry partner) above

[25] = system: H596 cells; assay: cellular activity assay of USP1-UAF1; type: cell-based, human; conditions: for change in levels of Ub-PCNA and Ub-FANCD2: H596, 6 h, cisplatin 100 μM, ML323 30 μM
[26] = system: H596 cells; assay: colony-forming assay; type: cell-based, human
[27] = system: USP1 shRNA knockdown H596 cells; assay: cellular Ub-PCNA level in USP1 shRNA knockdown cells; type: cell-based, human
[28] = molecular target: T1, USP1-UAF1; assay: HA-Ub-VME labeling of purified USP1-UAF1; conditions: biochemical assay
[29] = system: 70 unrelated proteases; assay: in vitro protease profiling
[30] = molecular target: SENP1 (Homo sapiens, UniProt Q9P0U3); assay: in vitro deSUMOylase selectivity; type: biochemical
[31] = molecular target: USP5 (Homo sapiens, UniProt P45974); assay: in vitro DUB selectivity; type: biochemical
Sequence of USP5 (P45974 whole entry): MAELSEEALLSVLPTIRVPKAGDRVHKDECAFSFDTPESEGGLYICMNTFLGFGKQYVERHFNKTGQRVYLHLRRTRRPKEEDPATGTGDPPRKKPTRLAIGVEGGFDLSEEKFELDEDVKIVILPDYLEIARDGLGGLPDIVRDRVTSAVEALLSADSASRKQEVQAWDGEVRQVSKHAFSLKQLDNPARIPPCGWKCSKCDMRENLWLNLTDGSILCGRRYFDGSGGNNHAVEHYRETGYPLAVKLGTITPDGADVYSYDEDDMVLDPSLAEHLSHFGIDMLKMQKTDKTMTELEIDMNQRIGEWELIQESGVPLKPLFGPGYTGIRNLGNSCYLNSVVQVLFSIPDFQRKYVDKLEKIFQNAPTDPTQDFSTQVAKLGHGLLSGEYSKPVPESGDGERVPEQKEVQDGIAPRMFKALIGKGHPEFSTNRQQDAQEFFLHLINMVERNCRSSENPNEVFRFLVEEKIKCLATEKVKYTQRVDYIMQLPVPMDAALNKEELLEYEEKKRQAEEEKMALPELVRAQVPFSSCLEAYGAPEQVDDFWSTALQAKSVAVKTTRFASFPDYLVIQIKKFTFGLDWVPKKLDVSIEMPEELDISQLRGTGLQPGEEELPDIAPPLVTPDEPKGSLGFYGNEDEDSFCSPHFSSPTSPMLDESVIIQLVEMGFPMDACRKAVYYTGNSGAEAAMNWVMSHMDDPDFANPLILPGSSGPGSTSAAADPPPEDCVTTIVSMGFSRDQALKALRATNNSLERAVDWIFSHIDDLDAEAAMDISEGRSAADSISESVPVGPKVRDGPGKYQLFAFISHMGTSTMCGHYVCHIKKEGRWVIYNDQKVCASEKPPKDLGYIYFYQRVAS

[32] = system: U2OS cells; assay: FANCD2 subnuclear foci formation; type: cell-based, human; conditions: ML323 30 μM, cisplatin 5 μM, vehicle 13.1%
[33] = system: H460 cell line; assay: colony-forming assay; conditions: read-out: EC50 of cell killing; cisplatin-sensitive NSCLC H460
[34] = system: PD20 + D2 cells; assay: cytotoxicity assay; conditions: PD20 + D2, cisplatin alone

SMILES: CC(C)(Sc1ccc(CCN(CCCCC2CCCCC2)C(=O)NC2CCCCC2)cc1)C(=O)O [GW7647]
- affinity as inhibitor of human USP1-UAF1 [1]: low micromolar

SMILES: Cc1cnc(-c2ccccc2C(C)C)nc1NCc1ccc(-n2ccnn2)cc1 [ML323]
- cell cycle delay or arrest ([2]; H596, ML323 alone 20 μM): did not result in cell cycle delay or arrest
- inhibition of USP10 [3]: little to no inhibition
- labeling of other cellular DUBs by HA-Ub-VME [4]: did not inhibit the labeling of the DUBs tested
- inhibition of kinases [5]: no substantial inhibition
- inhibition of USP46-UAF1 [6]: did not inhibit
- inhibition of DUBs of UCH, OTU and MJD families [7]: little to no inhibition
- LD50 of UV sensitivity [8]: 3.4 J m^−2
- SCE events per chromosome [9]: 0.13 SCE events per chromosome
- sensitization to cisplatin [10]: no further sensitization to cisplatin
- inhibition of USP11 [11]: little to no inhibition
- inhibition of USP14 [12]: little to no inhibition
- inhibition of NEDP1 [13]: did not inhibit
- inhibition of USP21 [14]: little to no inhibition
- inhibition of USP8 [15]: little to no inhibition
- disruption of the USP1-UAF1 complex [16]: ruled out the possibility that ML323 acts as a disruptor of the USP1-UAF1 complex
- reversibility of inhibition [17]: reversible inhibitor
- LD50 of UV sensitivity [18]: 2.8 J m^−2
- inhibition of USP2 [19]: little to no inhibition
- LD50 of UV sensitivity [20]: 4.7 J m^−2
- decrease of UV LD50 vs UV treatment alone [20]: 42%
- inhibition mechanism ([21]; Lineweaver-Burk, di-Ub cleavage): mixed inhibition mechanism
- inhibition constant for the enzyme-substrate complex (K'i) ([21]; mixed inhibition): 183 nM
- LD50 of UV sensitivity [22]: 3.2 J m^−2
- I-SceI-induced HR frequency [23]: 0.81%
- labeling of cellular USP1 by HA-Ub-VME [24]: clear decrease in the intensity of the labeled USP1 band
- change in levels of Ub-PCNA and Ub-FANCD2 [25]: increase in the monoubiquitination of PCNA and FANCD2 was also observed
- time to effect on PCNA ubiquitination after treatment ([25]; H596, ML323 alone or in combination with cisplatin): 3 to 6 h
- level of Ub-H2A ([25]; H596, ML323 alone or with cisplatin): did not affect the level of Ub-H2A
- concentration at which increase in Ub-PCNA level is seen ([25]; H596, absence or presence of cisplatin, 6 h): ≥ 5 µM
- EC50 ([26]; Homo sapiens, NCI-H596, read-out: EC50 of cell killing): > 10000 nM
- Ub-PCNA level, cisplatin vs combination of ML323 and cisplatin [27]: little difference in Ub-PCNA levels
- labeling of USP1-UAF1 by HA-Ub-VME [28]: inhibited the labeling of USP1-UAF1 by HA-Ub-VME
- inhibition of other proteases [29]: no substantial inhibition
- inhibition of SENP1 [30]: did not inhibit
- inhibition of USP5 [31]: little to no inhibition
- FANCD2 subnuclear foci formation [32]: no substantial change

SMILES: N.N.[Cl][Pt][Cl] [cisplatin, reference compound]
- population of cells in S phase ([2]; H596, cisplatin 5 μM, ML323 20 μM): 45%
- EC50 [33]: 74 nM
- SCE events per chromosome [9]: 0.99 SCE events per chromosome
- change in levels of Ub-PCNA and Ub-FANCD2 [25]: small increase
- EC50 [34]: 12300 nM
- EC50 ([26]; read-out: EC50 of cell killing, H596, single agent): 486 nM
- FANCD2 subnuclear foci formation [32]: 59.4%

SMILES: O=c1[nH]c2ccccc2n1C1CCN(CCCC(c2ccc(F)cc2)c2ccc(F)cc2)CC1 [pimozide]
- affinity as inhibitor of human USP1-UAF1 [1]: low micromolar
